The values below come from publication PMC7587962, “Evaluation of Cytotoxicity and α-Glucosidase Inhibitory Activity of Amide and Polyamino-Derivatives of Lupane Triterpenoids” (Molecules, 2020).

The subject of one test is MDA-MB-468. Also noted: method as in PMID 25405285. To be noted: standard drugs used by NCI as control; cited from earlier work.
In another test the test system is 786-0. Also noted: method as in PMID 25405285. To be noted: standard drugs used by NCI as control; cited from earlier work.
In a further test the test system is A549/ATCC. Set-up: method as in PMID 25405285. Particulars: standard drugs used by NCI as control; cited from earlier work.
For a further test, the system named is RXF 393. Set-up: method as in PMID 25405285. To be noted: standard drugs used by NCI as control; cited from earlier work.
The next test deals with HL-60(TB). Particulars: standard drugs used by NCI as control; cited from earlier work.
The next test concerns SK-MEL-28. Also noted: method as in PMID 25405285. To be noted: standard drugs used by NCI as control; cited from earlier work.
The next test concerns UACC-257. Also noted: method as in PMID 25405285. Particulars: standard drugs used by NCI as control; cited from earlier work.
For another test, the system named is OVCAR-8. Set-up: method as in PMID 25405285. Particulars: standard drugs used by NCI as control; cited from earlier work.
The next test relates to MDA-MB-231/ATCC. Set-up: method as in PMID 25405285. Particulars: MDA-MB-31/ATCC; standard drugs used by NCI as control; cited from earlier work.
Another test has as its system SK-OV-3. Also noted: method as in PMID 25405285. Particulars: standard drugs used by NCI as control; cited from earlier work.
Another test relates to CAKI-1. Set-up: method as in PMID 25405285. Particulars: standard drugs used by NCI as control; cited from earlier work.
The next test deals with LOX IMVI. Also noted: method as in PMID 25405285. Particulars: standard drugs used by NCI as control; cited from earlier work.
For a further test, the system named is NCI-H226. Set-up: method as in PMID 25405285. To be noted: standard drugs used by NCI as control; cited from earlier work.
Another test has as its system SK-MEL-5. Also noted: method as in PMID 25405285. Particulars: standard drugs used by NCI as control; cited from earlier work.
The test system of another test is HCT-116. Set-up: method as in PMID 25405285. Particulars: standard drugs used by NCI as control; cited from earlier work.
Another test has as its system HCT-15. Set-up: method as in PMID 25405285. To be noted: standard drugs used by NCI as control; cited from earlier work.
Another test has as its system SNB-75. Set-up: method as in PMID 25405285. To be noted: standard drugs used by NCI as control; cited from earlier work.
The subject of the next test is OVCAR-5. Also noted: method as in PMID 25405285. To be noted: standard drugs used by NCI as control; cited from earlier work.
The next test concerns OVCAR-4. Also noted: method as in PMID 25405285. Particulars: standard drugs used by NCI as control; cited from earlier work.
For another test, the system named is SN12C. Also noted: method as in PMID 25405285. Particulars: standard drugs used by NCI as control; cited from earlier work.
Another test deals with OVCAR-3. Also noted: method as in PMID 25405285. Particulars: standard drugs used by NCI as control; cited from earlier work.
For a further test, the system named is NCI-H522. Set-up: method as in PMID 25405285. Particulars: standard drugs used by NCI as control; cited from earlier work.
A further test relates to M14. Also noted: method as in PMID 25405285. To be noted: standard drugs used by NCI as control; cited from earlier work.
In the next test the test system is NCI-H23. Set-up: method as in PMID 25405285. To be noted: standard drugs used by NCI as control; cited from earlier work.
For another test, the system named is T-47D. Set-up: method as in PMID 25405285. To be noted: standard drugs used by NCI as control; cited from earlier work.
The target in another test is Yeast α-Glucosidase. Kind of test: Yeast α-glucosidase activity assay. Format: biochemical, S. cerevisiae. Particulars: pH 6.8, 37 °C, p-nitrophenyl-α-D-glucopyranoside 1 mM; read-out: Yeast α-Glucosidase, IC50 ± SE. The protocol: Taken together, these considerations prompted us to evaluate a series of lupanes with amide function or polyamine chain 11, 12, 16, 18, and 22–26 for α-glucosidase inhibition. Initially, they were screened against α-glucosidase of S. cerevisiae as an accessible and high-throughput model. Confirmatory experiments were performed on isolated rough endoplasmic reticulum vesicles from rat liver, which contain neutral α-glucosidases I and II in a membrane-bound form.
In a 96-well flat transparent plate, the 0.12 U/mL enzyme solution (EC 3.2.1.20, expressed in S. cerevisiae, Sigma #G0660, St. Louis, MO, USA) was incubated with test compounds in 67 mM PBS (pH 6.8) at 37 °C for 5 min. Then, p-nitrophenyl-α-D-glucopyranoside (Sigma #N1377, St. Louis, MO, USA) was added to 1 mM final concentration and an increase in absorbance was recorded for 15 min at 405 nm wavelength with Infinite M200 PRO microplate reader (Tecan, Austria). Test compounds were dissolved in DMSO and diluted to the desired concentration in 67 mM PBS (pH 6.8) supplemented with 0.01% Tween 80 to avoid aggregation. Final DMSO concentration was <0.25% in sample wells, and it was also introduced in control and blank wells. […] Due to the absence of normal distribution of data, a Mann–Whitney U-test was used to determine statistical significance versus enzyme control using GraphPad Prism 8.0.1.

For the molecule `COc1cccc2c1C(=O)c1c(O)c3c(c(O)c1C2=O)C[C@@](O)(C(=O)CO)C[C@@H]3O[C@H]1C[C@H](N)[C@H](O)[C@H](C)O1` [DRB, doxorubicin], the GI50 in the test with MDA-MB-468 is 50 nM; in the test on 786-0 it was 130 nM; with A549/ATCC it was 60 nM; in the test on RXF 393, 100 nM; in the test with HL-60(TB), 190 nM; in the test on SK-MEL-28, 210 nM. Further, the GI50 was 140 nM in the test with UACC-257; 100 nM in the test on OVCAR-8; 510 nM in the test with MDA-MB-231/ATCC; 220 nM in the test with SK-OV-3; 950 nM with CAKI-1; 70 nM with LOX IMVI. Also, the GI50 was 50 nM with NCI-H226; 80 nM in the test with SK-MEL-5; 80 nM in the test with HCT-116; 6.46 µM in the test with HCT-15; 70 nM in the test with SNB-75; 410 nM in the test with OVCAR-5. Further, the GI50 is 370 nM in the test with OVCAR-4; 70 nM in the test with SN12C; 390 nM in the test on OVCAR-3; 30 nM in the test on NCI-H522; 180 nM with M14; 150 nM in the test with NCI-H23. For the same molecule, the GI50 in the test with T-47D is 60 nM.
As for `C=C(C)[C@@H]1CC[C@]2(C(=O)NCCNCCNCCN)CC[C@]3(C)[C@H](CC[C@@H]4[C@@]5(C)CCC(=O)C(C)(C)[C@@H]5CC[C@]43C)[C@@H]12` [Compound 11], the IC50 at Yeast α-Glucosidase was determined as 4.84 ± 1.02 µM.
